Laboratory results as given in patent publication US20200407683A1, “IN VITRO IMMUNE SYNAPSE SYSTEM AND METHOD OF IN VITRO […] RESPONSE USING THE SAME” (National Pingtung University of Science and Technology, priority 2018, published 2020).

System: IL-2
Experiment: In vitro immune synapse system, immune adjuvant immunostimulation: IL-2 level
Type: cell-based, pig
Conditions: 2 μg/well poly IC, in comparison to IL-18 (0.1 ng/well); Treg/APC system; FIG. 5; P<0.05
Procedure: In this Example, a commercial kit of porcine IL-2 and IL-10 was used for quantifying the IL-2 and IL-10 levels in the porcine cell supernatant. According to the steps of the specification provided in the kit, the standard liquid provided by the kit was diluted for later use, and a flow was described briefly below. Firstly, 100 μL of sample or diluted standard liquid was added into a 96-well plate and incubated for 1 hour. Next, 200 μL of biotinylated antibody reagent was added into the 96-well plate and incubated for another hour. […] Afterwards, 100 μL of stop solution was added to terminate the reaction in order to measure the absorbance. […]
Generally, the absorbance could be read by a commercial continuous spectrophotometer at a wavelength of 450/540 nm, and a standard curve was established by serially-diluted standard solution of various concentrations versus respective absorbances. Then, the cell cytokine concentration of each sample was calculated according to the regression equation of the standard curve, and a commercially statistical software (such as a SAS statistical program) was used to calculate significant difference between the means of all groups, as shown by the results of FIGS. 3A to 3B. […]

poly-IC
IL-2 level in the immunological synapse: significantly improve
